In patent US20240269139A1, “COMPOUNDS FOR TARGETED PROTEIN DEGRADATION OF KINASES” (DANA-FARBER CANCER INSTITUTE, INC., priority 2020, published 2024):
Read-outs that look alike come from different tables or passages of the source.

Key:
Assay type in all cases: cell-based
[1] = biological target: T1, protein kinases (human kinome) (Homo sapiens, UniProt Q16854); details: DGUOK (Q16854)
T1 sequence (Q16854 40-277): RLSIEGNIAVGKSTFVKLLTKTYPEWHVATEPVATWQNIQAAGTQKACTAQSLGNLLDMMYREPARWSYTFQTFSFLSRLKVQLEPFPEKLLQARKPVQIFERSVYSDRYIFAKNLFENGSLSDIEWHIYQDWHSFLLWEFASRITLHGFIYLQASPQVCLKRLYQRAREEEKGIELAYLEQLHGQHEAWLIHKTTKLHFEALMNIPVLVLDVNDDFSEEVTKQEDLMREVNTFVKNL

[2] = biological target: T2, protein kinases (human kinome) (Homo sapiens, UniProt O95835); details: LATS1 O95835
T2 sequence (O95835 1-1130): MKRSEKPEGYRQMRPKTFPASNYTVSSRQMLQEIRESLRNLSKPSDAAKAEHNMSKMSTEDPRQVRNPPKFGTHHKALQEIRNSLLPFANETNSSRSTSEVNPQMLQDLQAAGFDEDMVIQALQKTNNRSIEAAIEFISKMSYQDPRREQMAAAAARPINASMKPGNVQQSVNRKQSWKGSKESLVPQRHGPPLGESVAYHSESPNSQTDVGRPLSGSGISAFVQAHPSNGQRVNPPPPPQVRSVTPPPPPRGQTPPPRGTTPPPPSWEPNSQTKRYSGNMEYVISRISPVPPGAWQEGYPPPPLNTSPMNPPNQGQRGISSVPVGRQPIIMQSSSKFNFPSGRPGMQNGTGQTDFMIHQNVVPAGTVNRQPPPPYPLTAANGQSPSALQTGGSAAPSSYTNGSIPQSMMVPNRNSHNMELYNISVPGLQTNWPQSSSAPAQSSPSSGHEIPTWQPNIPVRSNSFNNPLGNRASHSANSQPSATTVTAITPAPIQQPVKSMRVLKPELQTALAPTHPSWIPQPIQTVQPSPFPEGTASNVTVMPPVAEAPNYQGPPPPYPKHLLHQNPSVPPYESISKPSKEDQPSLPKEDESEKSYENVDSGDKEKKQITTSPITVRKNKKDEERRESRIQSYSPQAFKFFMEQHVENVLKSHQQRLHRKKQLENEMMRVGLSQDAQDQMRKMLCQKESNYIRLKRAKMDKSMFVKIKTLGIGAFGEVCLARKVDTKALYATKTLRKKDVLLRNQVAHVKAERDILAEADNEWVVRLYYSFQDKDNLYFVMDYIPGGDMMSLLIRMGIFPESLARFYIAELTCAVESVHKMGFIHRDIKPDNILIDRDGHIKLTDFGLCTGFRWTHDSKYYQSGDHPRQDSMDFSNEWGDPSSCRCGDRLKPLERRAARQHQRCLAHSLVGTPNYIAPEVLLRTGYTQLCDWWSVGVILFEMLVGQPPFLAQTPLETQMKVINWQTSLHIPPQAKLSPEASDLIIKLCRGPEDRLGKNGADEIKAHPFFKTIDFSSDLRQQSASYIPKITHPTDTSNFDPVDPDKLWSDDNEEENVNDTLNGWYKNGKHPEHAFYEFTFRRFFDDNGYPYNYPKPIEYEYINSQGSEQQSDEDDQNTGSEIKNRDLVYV

[3] = biological target: T3, protein kinases (human kinome) (Homo sapiens, UniProt O15197); details: for logFC: EPHB6 (O15197-1)
T3 sequence (O15197 32-1021): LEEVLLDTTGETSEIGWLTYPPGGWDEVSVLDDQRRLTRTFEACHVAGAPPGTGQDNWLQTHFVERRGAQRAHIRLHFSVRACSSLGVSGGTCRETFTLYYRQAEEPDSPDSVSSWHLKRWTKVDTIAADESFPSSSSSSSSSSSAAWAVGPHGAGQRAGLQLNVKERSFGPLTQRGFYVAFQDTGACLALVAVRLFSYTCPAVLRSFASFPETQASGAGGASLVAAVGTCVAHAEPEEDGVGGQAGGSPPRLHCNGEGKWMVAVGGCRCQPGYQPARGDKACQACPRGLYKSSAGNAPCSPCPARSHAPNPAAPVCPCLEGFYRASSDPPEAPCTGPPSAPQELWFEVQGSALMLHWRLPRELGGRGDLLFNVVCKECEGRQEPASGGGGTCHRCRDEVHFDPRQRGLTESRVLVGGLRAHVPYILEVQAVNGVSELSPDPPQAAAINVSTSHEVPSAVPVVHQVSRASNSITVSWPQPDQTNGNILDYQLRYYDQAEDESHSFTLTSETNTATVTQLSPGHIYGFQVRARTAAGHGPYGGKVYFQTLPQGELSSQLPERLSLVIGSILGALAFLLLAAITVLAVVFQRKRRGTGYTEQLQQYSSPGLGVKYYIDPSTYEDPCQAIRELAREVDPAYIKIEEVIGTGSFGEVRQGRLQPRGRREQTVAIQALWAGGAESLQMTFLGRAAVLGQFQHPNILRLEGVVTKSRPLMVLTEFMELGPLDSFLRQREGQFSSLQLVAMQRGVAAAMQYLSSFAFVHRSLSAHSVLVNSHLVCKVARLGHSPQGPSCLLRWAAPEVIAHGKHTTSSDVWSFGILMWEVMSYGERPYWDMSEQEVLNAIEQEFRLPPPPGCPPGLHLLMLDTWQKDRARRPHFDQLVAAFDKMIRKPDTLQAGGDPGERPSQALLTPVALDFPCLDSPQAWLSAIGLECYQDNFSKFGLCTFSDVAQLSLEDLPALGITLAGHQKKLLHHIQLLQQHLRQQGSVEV

Q: For `CC(=O)c1c(C)c2cnc(Nc3ccc(N4CCN(CCOCCOCCOCCNC(=O)COc5cccc6c5C(=O)N(C5CCC(=O)NC5=O)C6=O)CC4)cn3)nc2n(C2CCCC2)c1=O` (stereo not shown) [BSJ.03.123], which logFC ([1]; experiment wp084) is on record?
A: Its logFC is −0.4377.

Q: Which logFC ([2]; experiment wp071) does the source give for `Nc1ncnc2c1c(-c1ccc(Oc3ccccc3)cc1)nn2[C@H]1CC[C@H](N2CCN(CCOCCNC(=O)CNc3cccc4c3C(=O)N(C3CCC(=O)NC3=O)C4=O)CC2)CC1` (stereo partly shown) [SB1.G.181] here?
A: The logFC was −1.273.

Q: And the “logFC LATS1” value ([2]; experiment wp071)?
A: The value was −1.273.

Q: With `CC(C)S(=O)(=O)c1ccccc1Nc1nc(Nc2ccc(N3CCN(CCOCCNC(=O)CNc4cccc5c4C(=O)N(C4CCC(=O)NC4=O)C5=O)CC3)cc2)ncc1Cl` (stereo not shown) [SK.3.91] as the compound, how does the logFC ([2]; experiment wp105) read?
A: The logFC was −0.3335.

Q: What about the “logFC LATS1” value ([2]; experiment wp105) of the same compound?
A: Its value is −0.3335.

Q: And the logFC ([2]; experiment wp107)?
A: The logFC was −0.4609.

Q: What about the “logFC LATS1” value ([2]; experiment wp107) of the same compound?
A: The value was −0.4609.

Q: What about the logFC ([2]; experiment wp160, 4 hr) of the same compound?
A: The logFC was −0.3463.

Q: What about the “logFC LATS1” value ([2]; experiment wp160, 4 hr) of the same compound?
A: The value was −0.3463.

Q: With `Cc1ccc(NC(=O)c2cccc(C(F)(F)F)c2)cc1N1Cc2cnc(Nc3ccc(N4CCN(Cc5cn(CCCCCOc6cccc7c6C(=O)N(C6CCC(=O)NC6=O)C7=O)nn5)CC4)nc3)nc2N(C)C1=O` (stereo not shown) [DB0646, N-(3-(7-((6-(4-((1-(5-((2-(2,6-Dioxopiperidin-3-yl)-1,3-dioxoisoindolin-4-yl)oxy)pentyl)-1H-1,2,3-triazol-4-yl)methyl)piperazin-1-v)pyridin-3-yl)amino)-1-methyl-2-oxo-1,4-dihydropyrimido[4,5-d]pyrimidin-3(2H)-yl)-4-methylphenyl)-3-(trifluoromethyl)benzamide] as the compound, how does the logFC ([3]; experiment wp160, 4 hr) read?
A: Its logFC is −0.3396.

Q: And the logFC ([3]; experiment wp160, 8 hr)?
A: The logFC was −0.6548.

Q: And the “logFC of EPHB6 (O15197-1)” value ([3]; experiment wp160, 4 hr)?
A: The value was −0.3396.

Q: And the “logFC of EPHB6 (O15197-1)” value ([3]; experiment wp160, 8 hr)?
A: The value was −0.6548.

Q: And the logFC ([2]; experiment wp160, 8 hr)?
A: Its logFC is −0.3382.

Q: What about the “logFC LATS1” value ([2]; experiment wp160, 8 hr) of the same compound?
A: Its value is −0.3382.

Q: How did the logFC ([1]; experiment wp147, 4 uM) turn out when `CC(C)(C)c1nc(-c2cccc(NS(=O)(=O)c3c(F)cccc3F)c2F)c(-c2ccnc(NCCOCCNC(=O)CCOCCOCCNc3cccc4c3C(=O)N(C3CCC(=O)NC3=O)C4=O)n2)s1` (stereo not shown) [DD.03.106] was run?
A: The logFC was −0.5418.

Q: What does the source list for `Cc1ccc(NC(=O)c2cccc(C(F)(F)F)c2)cc1N1Cc2cnc(Nc3ccc(N4CCN(CCCOc5cccc6c5C(=O)N(C5CCC(=O)NC5=O)C6=O)CC4)nc3)nc2N(C)C1=O` (stereo not shown) [DB0662]?
A: logFC ([3]; experiment wp168): −0.736; logFC of EPHB6 (O15197-1) ([3]; Experiment wp168): −0.736

Q: For `Cn1c(=O)c(-c2c(Cl)cccc2Cl)cc2cnc(Nc3ccc(OCCNC(=O)CCCCCCNC(=O)COc4cccc5c4C(=O)N(C4CCC(=O)NC4=O)C5=O)cc3)nc21` (stereo not shown) [SB1.G.192.1], which logFC ([3]; experiment wp071) is on record?
A: Its logFC is −0.6259.

Q: And the logFC ([3]; experiment wp131)?
A: Its logFC is −0.5189.

Q: What about the “logFC of EPHB6 (O15197-1)” value ([3]; experiment wp071) of the same compound?
A: Its value is −0.6259.

Q: And the “logFC of EPHB6 (O15197-1)” value ([3]; experiment wp131)?
A: The value was −0.5189.

Q: For `C=CCn1c(=O)c2cnc(Nc3ccc(N4CCN(CCCNc5cccc6c5C(=O)N(C5CCC(=O)NC5=O)C6=O)CC4)cc3)nc2n1-c1cccc(C(C)(C)O)n1` (stereo not shown) [ZNL.02.096], which logFC ([1]; experiment wp118) is on record?
A: Its logFC is −0.5337.

Q: `Cc1ncsc1-c1ccc([C@H](C)NC(=O)[C@@H]2C[C@@H](O)CN2C(=O)[C@@H](NC(=O)CCCCCN2CCN(c3ccc(Nc4ncc5scc(-c6cccc(NS(C)(=O)=O)c6)c5n4)cc3)CC2)C(C)(C)C)cc1` [RSS0680, (2S,4R)-1-((S)-3,3-Dimethyl-2-(6-(4-(4-((7-(3-(methylsulfonamido)phenyl)thieno[3,2-d]pyrimidin-2-yl)amino)phenyl)piperazin-1-yl)hexanamido)butanoyl)-4-hydroxy-N—((S)-1-(4-(4-methylthiazol-5yl)phenyl)ethyl)pyrrolidine-2-carboxamide] was tested. Which logFC ([2]; experiment wp117) did it give?
A: Its logFC is −0.4143.

Q: What about the “logFC LATS1” value ([2]; experiment wp117) of the same compound?
A: Its value is −0.4143.

Q: How did the logFC ([1]; experiment wp084) turn out when `CN(C)C(=O)c1cc2cnc(Nc3ccc(N4CCN(CCCCNC(=O)COc5cccc6c5C(=O)N(C5CCC(=O)NC5=O)C6=O)CC4)cn3)nc2n1C1CCCC1` (stereo not shown) [BSJ.04.132] was run?
A: Its logFC is −0.5254.

Q: `CC(C)(C)c1nc(-c2cccc(NS(=O)(=O)c3c(F)cccc3F)c2F)c(-c2ccnc(NCCOCCNC(=O)CCOCCOCCNc3cccc4c3CN(C3CCC(=O)NC3=O)C4=O)n2)s1` (stereo not shown) [DD.03.107] was tested. Which logFC ([1]; experiment wp147, 1 uM) did it give?
A: Its logFC is −0.5245.

Q: What about the logFC ([1]; experiment wp147, 4 uM) of the same compound?
A: The logFC was −0.9678.
